In patent US20170202932A1, “METHODS FOR INHIBITING NEURON APOPTOSIS AND NECROSIS” (NEWSOUTH INNOVATIONS PTY LIMITED, priority 2012, published 2017):

What was measured:
[1] = target: T1, recombinant mouse TRPC3c channels (Mus musculus, UniProt Q9QZC1, DEL811-838); test: Indo-1 ratiometric Ca2+ imaging of CCh-activated Ca2+ entry, HEK293 cells expressing TRPC3c; assay type: cell-based; conditions: genistein 200 μM pre-incubation, n=5, without genistein 575.6±44.2 nM
T1 construct: expressed in transfected cells; host or cells: HEK293 cells, stably transfected (pIRES-DsRed2 vector)
T1 sequence (Q9QZC1 with tags, fused parts or gaps DEL811-838): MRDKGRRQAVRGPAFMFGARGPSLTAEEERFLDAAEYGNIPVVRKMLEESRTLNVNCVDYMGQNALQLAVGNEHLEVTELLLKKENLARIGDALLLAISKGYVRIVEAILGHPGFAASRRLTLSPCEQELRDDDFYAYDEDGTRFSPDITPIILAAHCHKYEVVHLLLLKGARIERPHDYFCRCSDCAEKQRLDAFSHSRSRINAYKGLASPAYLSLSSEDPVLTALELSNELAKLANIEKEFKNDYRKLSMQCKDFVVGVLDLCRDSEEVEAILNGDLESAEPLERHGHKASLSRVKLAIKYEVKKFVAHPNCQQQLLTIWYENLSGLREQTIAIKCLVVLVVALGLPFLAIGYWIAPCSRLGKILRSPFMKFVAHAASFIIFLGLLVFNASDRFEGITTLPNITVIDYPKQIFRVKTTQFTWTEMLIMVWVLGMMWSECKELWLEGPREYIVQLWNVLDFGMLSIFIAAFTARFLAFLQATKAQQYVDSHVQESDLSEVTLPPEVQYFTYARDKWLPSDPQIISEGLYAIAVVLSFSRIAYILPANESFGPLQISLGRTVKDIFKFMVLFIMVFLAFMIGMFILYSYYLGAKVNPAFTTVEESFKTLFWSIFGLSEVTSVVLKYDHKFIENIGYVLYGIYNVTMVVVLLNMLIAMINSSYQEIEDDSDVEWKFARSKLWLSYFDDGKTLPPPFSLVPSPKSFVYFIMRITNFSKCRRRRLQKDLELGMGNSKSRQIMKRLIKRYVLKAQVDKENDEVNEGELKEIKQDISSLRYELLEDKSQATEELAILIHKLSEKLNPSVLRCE
Method: The TRPC3-mediated Ca^2+ entry through two distinct activation pathways was assessed by microfluorometric Ca^2+ imaging: i) Ca^2+ entry via the M3 receptor-PLCB-DAG pathway endogenous to HEK293 cells, using Indo-1 as a Ca^2+ indicator; and ii) Ca^2+ entry via mGluR1-PLCB-DAG through co-expression of the mGluR1, using Fluo-4 as a Ca^2+ indicator.
Cells were grown in DMEM media on 18 mm circular coverslips coated with poly-D-lysine (25 μg/ml) and collagen (25 μg/ml) at 1:1 ratio. The cells were washed with HPSS. The coverslips were then incubated with HPSS and 0.1% pluronic acid, along with either 1 μM Indo-1AM or Fluo-4AM Ca^2+ indicator (Invitrogen, U.S.A.) for an hour prior to the experiment. The cells were then placed into HPSS with 5 μM GdCl3 to block endogenous Ca^2+ entry (added to all superfusions). The M3 AChR-mediated TRPC3 activation was achieved by bath application of carbachol. The mGluR1-mediated TRPC3 activation was achieved by bath application of DHPG.
For Indo-1 experiments, the cells were mounted on a Nikon TMD inverted microscope fitted with an Indo-1 filter set (Nikon Indo-1 filter cube, 485 nm/DM455 nm/405 nm) and illuminated with a mercury lamp. Cells were excited at 350 nm, with dual emission of the field was detected at 410 nm and 480 nm using two photomultiplier tubes, and the ratioed emission was determined in real-time using in-house software. […]

[2] = target: T2, Purkinje cell TRPC3 channels (Mus musculus, UniProt Q9QZC1, DEL811-838); test: Whole-cell voltage clamp of DHPG-evoked inward current in Purkinje cells of cerebellar brain slices; assay type: cell-based
T2 construct: from tissue; host or cells: parasagittal cerebellar brain slices, C129-SvEv mice, Purkinje neurons
T2 sequence (Q9QZC1 with tags, fused parts or gaps DEL811-838): T1 sequence (Q9QZC1 with tags, fused parts or gaps DEL811-838)
Method: TRPC3c-mediated current in cerebellar Purkinje cells was then assessed. Parasagittal cerebellar brain slices (400 μm) were prepared using standard techniques (Power and Sah, (2007) J. Physiol. 580:835-57). Mice (C129-SvEv strain, 4-8 weeks old) were anaesthetized with pentobarbital and decapitated. The brain was removed and submerged in an ice cold modified artificial cerebral spinal fluid (ACSF) solution containing 119 mM NaCl, 2.5 mM KCl, 3.3 mM MgCl2, 0.5 mM CaCl2, 1.0 mM Na2PO4, 26.2 mM NaHCO3, 11 mM glucose, equilibrated with 95% CO2, 5% 02. Slices were cut with a VT1200 vibratome (Leica, Germany) and were allowed to recover for at least 1 h at room temperature in a standard ACSF solution containing 119 mM NaCl, 2.5 mM KCl, 1.3 mM MgCl2, 2.5 mM CaCl2, 1.0 mM Na2PO4, 26.2 mM NaHCO3, 11 mM glucose, equilibrated with 95% CO2, 5% O2.
For recording, slices were transferred to the stage of a Zeiss Examiner D1 microscope and continuously perfused with ACSF heated to 30° C. Whole-cell patch-clamp recordings were made from the soma of Purkinje neurons identified using infrared differential interference contrast videomicroscopy. Patch pipettes (3-5 MΩ) were filled with an internal solution containing 135 mM Cesium methanesulfonate, 8 mM NaCl, 10 mM HEPES, 2 mM Mg2ATP, 0.3 mM Na3GTP, 0.1 spermine (pH 7.3 with KOH, osmolarity 290-300 mosmol l^−1). Alexa 594 (30 μM; Invitrogen, U.S.A.) was added to the internal solution to visualise the dendritic tree. Whole-cell currents at a holding potential of −70 mV were amplified with an Axopatch 2B amplifier (Molecular Devices, U.S.A.), filtered at 5 kHz and digitized at 20 kHz with a Digidata1440 (Molecular Devices), and controlled using pClamp 10.2 Software (Molecular Devices). Whole-field fluorescence measurements were made with a 40× water immersion objective (NA 1.0; Zeiss, Germany) using a F43 filter block; excitation 545/25 nm; dichroic 570 nm, emission 605/70 nm. Images were acquired with a cooled CCD camera (ProgRes MF-Cool, Jenoptik, Germany) DHPG (50 μM) was applied onto the dendritic field by focal pressure application (in ACSF) through a patch pipette.

In the case of `O=c1c(-c2ccc(O)cc2)coc2cc(O)cc(O)c12` [genistein, 4′, 5,7-trihydroxyisoflavone], the “peak [Ca2+] on return of extracellular Ca2+ (CCh-activated Ca2+ entry)” value [1] is reported as 81.9 ± 19.8 nM, the “peak of the DHPG-evoked current” value ([2]; 15 min after genistein 100 μM, before genistein −400±55 pA) is reported as −77±50 pA and the “integrated area of the DHPG-evoked current (net charge)” value ([2]; after genistein 100 μM, before genistein −878±11 pC) is reported as −74±105 pC. For the same molecule, the “time over which block of the current was produced” value ([2]; genistein 100 μM bath application) was 10 to 15 min and the “reduction of DHPG-evoked Purkinje cell inward current” value ([2]; genistein 100 μM, DHPG 50 μM, holding −70 mV, n=3) was 90±12%.
